target: T1, BRD4 BD2 (Homo sapiens, UniProt O60885, Y97A); experiment: TR-FRET competition assay, BRD4 BD2; type: binding; conditions: single mutant tandem BRD4, read-out: pIC50 in the BRD4 BD2 assay (converted)
T1 construct: BRD4 (1-477) (Y97A) and (Y390A); made in house; host or cells: E. coli (pET15b vector)
Procedure: Bromodomain binding was assessed utilising a time resolved fluorescent resonance energy transfer (TR-FRET) competition assay. To enable this approach a known, high affinity, pan-BET interacting small molecule was labelled with Alexa Fluor® 647, which is a far-red-fluorescent dye (Reference Compound X). Reference Compound X acts as a reporter of bromodomain binding and is the acceptor fluorophore component of the TR-FRET pair. Europium chelate, conjugated to an anti-6*His antibody, was utilised as the donor fluorophore in the TR-FRET pair. […] A TR-FRET signal is generated when the donor and acceptor fluorophores are in close proximity, between 20-80 Å, which is enabled in this assay by binding of Reference Compound X to the bromodomain protein.
If the acceptor fluorophore is in close proximity then energy transfer can occur, which leads to emission of Alexa Fluor® 647 at λ665 nm. In the presence of competitor compound, Reference Compound X can be displaced from binding to the bromodomain. If displacement occurs, the acceptor fluorophore is no longer in proximity to the donor fluorophore, which prevents fluorescent energy transfer and, subsequently, a loss of Alexa Fluor® 647 emission at λ665 nm.
The competition of the compounds of formula (I) with Reference Compound X for binding to the BET family (BRD2, BRD3, BRD4 and BRDT) was assessed using protein truncates spanning both bromodomain 1 (BD1) and bromodomain 2 (BD2). In order to monitor differential binding to either BD1 or BD2, single residue mutations of key tyrosines to alanine were made in the acetyl lysine binding pockets. To validate this approach, a double residue mutant tandem domain protein was produced for each of the BET family members. Utilising a Fluorescence Polarisation approach, binding affinities for each of the single and double mutants for Reference Compound X were determined. […] Final purification was completed by Superdex 200 prep grade size exclusion column. Purified protein was stored at −80° C. in 20 mM HEPES pH 7.5 and 100 mM NaCl.
Protocol for Bromodomain BRD2, 3, 4 and T, BD1+BD2 mutant TR-FRET competition assays: All assay components were dissolved in an assay buffer composing of 50 mM HEPES pH7.4, 50 mM NaCl, 5% Glycerol, 1 mM DTT and 1 mM CHAPS. Reference Compound X was diluted, in assay buffer containing 20 nM single mutant, tandem bromodomain protein, to a concentration equivalent to 2*Kd for this bromodomain. The solution containing bromodomain and Reference Compound X was added to dose response dilutions of test compound or DMSO vehicle (a maximum of 0.5% DMSO is used in this assay) in Greiner 384 well black low volume microtitre plates and subsequently incubated for 30 minutes at room temperature. An equal volume of 3 nM of anti-6*His Europium chelate was added to all wells, followed by a further 30 minute incubation at room temperature. TR-FRET was detected using a Perkin Elmer Multimode plate reader, by exciting the donor fluorophore at λ337 nm and subsequently, after a delay of 50 μsecs, measuring emission of the donor and acceptor fluorophores at λ615 nm and λ665 nm, respectively. In order to control these assays, 16 replicates each of uninhibited (DMSO vehicle) and inhibited (10*IC50 concentrations of Example 11 of WO 2011/054846A1) TR-FRET assays were included on every microtitre plate.

IC50 [µM]	SMILES
1 to 100	CNC(=O)c1cc(C(=O)NCCn2cnnc2)cc2c1OCC2c1ccccc1 (centres unmarked) [Example 110, N^5-(2-(4H-1,2,4-triazol-4-yl)ethyl)-N^7-methyl-3-phenyl-2,3-dihydrobenzofuran-5,7-dicarboxamide]
1 to 100	CNC(=O)c1cc(C(=O)Nc2nnn(C)n2)cc2c1OC[C@H]2c1ccccc1 [Example 123, (S)-N^7-methyl-N^5-(2-methyl-2H-tetrazol-5-yl)-3-phenyl-2,3-dihydrobenzofuran-5,7-dicarboxamide]
1 to 100	CNC(=O)c1cc(C(=O)Nc2nccn2C)cc2c1OCC2c1ccccc1 (centres unmarked) [Example 118, N^7-methyl-N^5-(1-methyl-1H-imidazol-2-yl)-3-phenyl-2,3-dihydrobenzofuran-5,7-dicarboxamide]
1 to 100	CNC(=O)c1cc(C(=O)NCCc2cnn(C)c2)cc2c1OCC2c1ccc(F)cc1 (single isomer, unassigned) [Example 119, (R*)-3-(4-fluorophenyl)-N^7-methyl-N^5-(2-(1-methyl-1H-pyrazol-4-yl)ethyl)-2,3-dihydrobenzofuran-5,7-dicarboxamide]

Second part, the compound before the results:

SMILES	IC50 [µM]
CCNC(=O)c1cc(C(=O)NC)c2c(c1)C(c1cccc(C(=O)OCC)c1)CO2 (single isomer, unassigned) [Example 113, (R*)-ethyl 3-(5-(ethylcarbamoyl)-7-(methylcarbamoyl)-2,3-dihydrobenzofuran-3-yl)benzoate]	1 to 100
CNC(=O)c1cc(C(=O)NC2CC2)cc2c1OCC2C1CCOCC1 (single isomer, unassigned) [Example 120, (R*)-N^5-cyclopropyl-N^7-methyl-3-(tetrahydro-2H-pyran-4-yl)-2,3-dihydrobenzofuran-5,7-dicarboxamide]	1 to 100
CNC(=O)c1cc(C(=O)N[C@H]2C[C@@H]2C)cc2c1OCC2C1CCOCC1 (single isomer, unassigned) [Example 121, (R*)-N^7-methyl-N^5-((1S,2S)-2-methylcyclopropyl)-3-(tetrahydro-2H-pyran-4-yl)-2,3-dihydrobenzofuran-5,7-dicarboxamide]	1 to 100
CNC(=O)c1cc(C(=O)NC2CC2)cc2c1OCC2C1CCOCC1 (centres unmarked) [Example 104, N^5-cyclopropyl-N^7-methyl-3-(tetrahydro-2H-pyran-4-yl)-2,3-dihydrobenzofuran-5,7-dicarboxamide]	1 to 100
CNC(=O)c1cc(C(=O)N[C@H]2[C@@H]3COC[C@@H]32)cc2c1OC[C@@H]2c1ccc(OCCN)cc1 (single isomer, unassigned) [Example 111, (R*)-3-(4-(2-aminoethoxy)phenyl)-N^5-((1R,5S,6r)-3-oxabicyclo[3.1.0]hexan-6-yl)-N^7-methyl-2,3-dihydrobenzofuran-5,7-dicarboxamide]	1 to 100

tested on: BET family (BRD2, BRD3, BRD4 and BRDT) tandem bromodomain proteins; experiment: Fluorescence Polarisation binding of Reference Compound X to mutant tandem BET proteins; design: species or system Human; conditions: double residue (Tyr to Ala) mutant tandem domain proteins
Procedure: The competition of the compounds of formula (I) with Reference Compound X for binding to the BET family (BRD2, BRD3, BRD4 and BRDT) was assessed using protein truncates spanning both bromodomain 1 (BD1) and bromodomain 2 (BD2). In order to monitor differential binding to either BD1 or BD2, single residue mutations of key tyrosines to alanine were made in the acetyl lysine binding pockets. To validate this approach, a double residue mutant tandem domain protein was produced for each of the BET family members. Utilising a Fluorescence Polarisation approach, binding affinities for each of the single and double mutants for Reference Compound X were determined. […] The affinities of the single mutated bromdomain tandem proteins for Reference Compound X were equi-potent with the corresponding non-mutated BET protein. […] Final purification was completed by Superdex 200 prep grade size exclusion column. Purified protein was stored at −80° C. in 20 mM HEPES pH 7.5 and 100 mM NaCl. Protein identity was confirmed by peptide mass fingerprinting and predicted molecular weight confirmed by mass spectrometry.

SMILES	reduction in Kd (affinity), double mutant tandem proteins versus non mutated, wild type tandem BET proteins [fold]
COc1ccc2c(c1)C(c1ccc(Cl)cc1)=N[C@@H](CC(=O)NCCCCCNC(=O)CCCCCC1(C)/C(=C/C=C/C=C/C3=[N+](CCCCS(=O)(=O)O)c4ccc(S(=O)(=O)O)cc4C3(C)C)N(CCCCS(=O)(=O)[O-])c3ccc(S(=O)(=O)O)cc31)c1nnc(C)n1-2 (some centres unmarked) [Reference Compound X]	> 1000

same assay, conditions: single mutated tandem proteins

SMILES	affinities of the single mutated bromodomain tandem proteins versus the corresponding non-mutated BET protein
COc1ccc2c(c1)C(c1ccc(Cl)cc1)=N[C@@H](CC(=O)NCCCCCNC(=O)CCCCCC1(C)/C(=C/C=C/C=C/C3=[N+](CCCCS(=O)(=O)O)c4ccc(S(=O)(=O)O)cc4C3(C)C)N(CCCCS(=O)(=O)[O-])c3ccc(S(=O)(=O)O)cc31)c1nnc(C)n1-2 (some centres unmarked) [Reference Compound X]	equi-potent

— US11273146B2, “Benzofuran derivatives and their use as bromodomain inhibitors” (GLAXOSMITHKLINE INTELLECTUAL PROPERTY (NO. 2) LIMITED, priority 2017, dated 2022)
